Data published in patent US8546381B2, “Bridged heterocyclic compounds and methods of use” (Medivation Technologies, Inc., priority 2008, dated 2013).
Several values for one entry are separate records, joined by “and”; a condition that tells them apart may be missing. Identical values can stand only once.

Assays:
[1] = molecular target: T1, human recombinant serotonin (5-Hydroxytryptamine) 5-HT6 receptor (Homo sapiens, UniProt P50406); assay: Serotonin 5-HT6 radioligand binding ([3H]LSD); conditions: for inhibition at 1 µM: read-out: Serotonin 5-HT6, inhibition of ligand binding (1 μM)
T1 construct: expressed in transfected cells; host or cells: human HeLa cells
T1 sequence (P50406 whole entry): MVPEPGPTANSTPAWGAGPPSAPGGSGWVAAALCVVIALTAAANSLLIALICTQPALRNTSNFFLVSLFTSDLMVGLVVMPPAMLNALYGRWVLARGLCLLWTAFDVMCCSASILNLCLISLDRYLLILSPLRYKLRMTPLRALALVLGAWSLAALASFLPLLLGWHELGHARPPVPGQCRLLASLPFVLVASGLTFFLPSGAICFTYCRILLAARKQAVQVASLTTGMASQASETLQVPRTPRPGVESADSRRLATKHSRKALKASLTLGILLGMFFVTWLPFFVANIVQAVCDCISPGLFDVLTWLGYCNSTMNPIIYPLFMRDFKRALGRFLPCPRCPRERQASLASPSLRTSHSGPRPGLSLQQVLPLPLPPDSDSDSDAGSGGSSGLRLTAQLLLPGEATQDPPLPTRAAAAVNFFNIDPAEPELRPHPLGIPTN
Procedure: To evaluate in radioligand binding assays the activity of compounds of the invention, human recombinant serotonin (5-Hydroxytryptamine) 5-HT6 receptor expressed in human HeLa cells (Monsma, F. J. Jr. et al., Mol. Pharmacol. 43:320, 1993) in a modified Tris-HCl buffer (50 mM Tris-HCl, pH 7.4, 150 mM NaCl, 2 mM Ascorbic Acid, 0.001% BSA) was used. Compounds of the invention were incubated with 1.5 nM [3H]Lysergic acid diethylamide (LSD) for 120 minutes at 37° C. Non-specific binding was estimated in the presence of 5 μM Serotonin (5-HT). Receptor proteins were filtered and washed, the filters were then counted to determine [3H]LSD specifically bound. Compounds were screened at 1 μM or lower, using 1% DMSO as vehicle. Biochemical assay results are presented as the percent inhibition of specific binding in Table 4.

[2] = molecular target: T2, human recombinant serotonin (5-Hydroxytryptamine) 5-HT7 receptor (Homo sapiens, UniProt P34969); assay: Serotonin 5-HT7 radioligand binding ([3H]LSD); conditions: read-out: Serotonin 5-HT7, inhibition of ligand binding (1 μM)
T2 construct: expressed in transfected cells; host or cells: CHO cells
T2 sequence (P34969 whole entry): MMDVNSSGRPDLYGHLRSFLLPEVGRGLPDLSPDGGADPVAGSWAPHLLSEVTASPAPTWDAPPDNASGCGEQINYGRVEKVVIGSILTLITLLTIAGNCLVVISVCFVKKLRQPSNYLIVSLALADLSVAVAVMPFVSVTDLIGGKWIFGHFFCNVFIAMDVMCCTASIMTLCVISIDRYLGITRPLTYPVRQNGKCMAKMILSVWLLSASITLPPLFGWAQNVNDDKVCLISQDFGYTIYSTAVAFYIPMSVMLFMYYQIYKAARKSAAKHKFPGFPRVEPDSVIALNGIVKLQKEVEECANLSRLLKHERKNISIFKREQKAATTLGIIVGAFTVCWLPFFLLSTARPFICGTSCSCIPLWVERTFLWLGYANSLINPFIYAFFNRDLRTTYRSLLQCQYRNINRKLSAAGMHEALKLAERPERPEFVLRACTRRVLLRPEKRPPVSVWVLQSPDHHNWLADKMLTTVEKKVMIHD
Procedure: To evaluate in radioligand binding assays the activity of compounds of the invention, human recombinant serotonin (5-Hydroxytryptamine) 5-HT7 receptor expressed in Chinese hamster ovary (CHO) cells (Roth, B. L. et al., J. Pharmacol. Exp. Ther. 268:1403, 1994; Shen, Y. et al., J. Biol. Chem. 268:18200, 1993) in a modified Tris-HCl buffer (50 mM Tris-HCl, pH 7.4, 10 mM MgCl2, 0.5 mM EDTA) was used. Compounds of invention were incubated with 5.5 nM [^3H] Lysergic acid diethylamide (LSD) for 2 hours at 25° C. Non-specific binding was estimated in the presence of 10 μM Serotonin (5-HT). Receptor proteins were filtered and washed, the filters were then counted to determine [^3H]LSD specifically bound. Compounds were screened at 1 μM or lower, using 1% DMSO as vehicle. Biochemical assay results are presented as the percent inhibition of specific binding in Table 4.

CN1C2CCC1c1c(n(CCC(=O)N3CCNC(=O)C3)c3ccc(Cl)cc13)C2 (stereo not shown) [Compound 3]
inhibition at 1 µM [1]: 3%

CC(=O)N1CCN(C(=O)CCn2c3c(c4cc(Cl)ccc42)C2CCC(C3)N2C)CC1 (stereo not shown) [Compound 8]
inhibition at 1 µM [1]: -1%

CN1C2CCC1c1c(n(CCC(=O)N3CCNCC3)c3ccc(Cl)cc13)C2 (stereo not shown) [Compound 9]
inhibition at 1 µM [1]: 2%

CN1C2CCC1c1c(n(CCC(=O)N3CC[S+]([O-])CC3)c3ccc(Cl)cc13)C2 (stereo not shown) [Compound 10]
inhibition at 1 µM [1]: -13%

CN1C2CCC1c1c(n(CCC(=O)N3CCS(=O)(=O)CC3)c3ccc(Cl)cc13)C2 (stereo not shown) [Compound 11]
inhibition at 1 µM [1]: -16%

CN1C2CCC1c1c(n(CCC(=O)N3CCSCC3)c3ccc(Cl)cc13)C2 (stereo not shown) [Compound 12]
inhibition at 1 µM [1]: -1%

Cc1ccc2c(c1)c1c(n2CCc2ccc(C)nc2)CC2CCC1N2C (stereo not shown) [Compound 32]
inhibition at 1 µM [1]: 13%

CN1C2CCC1c1c(n(CCc3ccc(C(F)(F)F)nc3)c3ccc(Cl)cc13)C2 (stereo not shown) [Compound 34]
Serotonin 5-HT6, inhibition of ligand binding (1 μM) [1]: 28.0%
inhibition at 1 µM [1]: 20%

CN1C2CCC1c1c(n(CCCc3ccc(C(F)(F)F)nc3)c3ccc(Cl)cc13)C2 (stereo not shown) [Compound 37]
inhibition at 1 µM [1]: 22%

Cc1ccc(CCCn2c3c(c4cc(Cl)ccc42)C2CCC(C3)N2C)cn1 (stereo not shown) [Compound 38]
inhibition at 1 µM [1]: 17%

CN1C2CCC1c1c(n(CCCc3ccc(Cl)cc3)c3ccc(Cl)cc13)C2 (stereo not shown) [Compound 39]
inhibition at 1 µM [1]: 24%

Cc1ccc(C(O)Cn2c3c(c4cc(Cl)ccc42)C2CCC(C3)N2C)cn1 (stereo not shown) [Compound 52]
inhibition at 1 µM [1]: 16%

Cc1ccc2c(c1)c1c(n2CC(C)(O)c2ccc(Cl)cc2)CC2CCC1N2C (stereo not shown) [Compound 54]
inhibition at 1 µM [1]: 26%

CCOC(=O)CCn1c2c(c3cc(Cl)ccc31)C1CCC(C2)N1C (stereo not shown) [Compound 70, ethyl 3-(2-chloro-11-methyl-5,6,7,8,9,10-hexahydro-7,10-iminocyclohept[b]indol-5-yl)propanoate]
inhibition at 1 µM [1]: 3%

Cc1ccc2c(c1)c1c(n2CCc2ccc(C(F)(F)F)nc2)CC2CCC1N2C (stereo not shown) [Compound 71]
Serotonin 5-HT6, inhibition of ligand binding (1 μM) [1]: 8.0/ % and 2.0%

CN1C2CCC1c1c(n(CCC(=O)O)c3ccc(Cl)cc13)C2 (stereo not shown) [Compound 72]
inhibition at 1 µM [1]: -1%

CN1C2CCC1c1c(n(CCC(N)=O)c3ccc(Cl)cc13)C2 (stereo not shown) [Compound 73]
inhibition at 1 µM [1]: -4%

CN1C2CCC1c1c(n(CCc3ccc(C(F)(F)F)nc3)c3cc(F)c(Cl)cc13)C2 (stereo not shown) [Compound 77]
inhibition at 1 µM [1]: 21%

Cc1ccc(CCn2c3c(c4cc(Cl)ccc42)C2CCC(C3)N2C)cn1 (stereo not shown) [Compound 79]
inhibition at 1 µM [1]: 10%

CN1C2CCC1c1c(n(CCc3cccnc3)c3ccc(Cl)cc13)C2 (stereo not shown) [Compound 80]
inhibition at 1 µM [1]: 6%

Cc1ccc2c(c1)c1c(n2CCc2cnc(C)nc2)CC2CCC1N2C (stereo not shown) [Compound 81]
inhibition at 1 µM [1]: 12%

Cc1ncc(CCn2c3c(c4cc(Cl)ccc42)C2CCC(C3)N2C)cn1 (stereo not shown) [Compound 82]
inhibition at 1 µM [1]: 13%

COc1ccc(CCn2c3c(c4cc(C)ccc42)C2CCC(C3)N2C)cc1 (stereo not shown) [Compound 83]
inhibition at 1 µM [1]: 23%

COc1ccc(CCn2c3c(c4cc(Cl)ccc42)C2CCC(C3)N2C)cc1 (stereo not shown) [Compound 84]
inhibition at 1 µM [1]: 13%

Cc1ccc2c(c1)c1c(n2CCCc2ccc(Cl)cc2)CC2CCC1N2C (stereo not shown) [Compound 85]
inhibition at 1 µM [1]: 52%

Cc1ccc2c(c1)c1c(n2CCc2cccnc2)CC2CCC1N2C (stereo not shown) [Compound 86]
inhibition at 1 µM [1]: 60%

CN1C2CCC1c1c(n(CCc3cncc(Cl)c3)c3ccc(Cl)cc13)C2 (stereo not shown) [Compound 87]
inhibition at 1 µM [1]: 23%

Cc1ccc2c(c1)c1c(n2CCc2cncc(Cl)c2)CC2CCC1N2C (stereo not shown) [Compound 88]
inhibition at 1 µM [1]: 25%

Cc1cncc(CCn2c3c(c4cc(Cl)ccc42)C2CCC(C3)N2C)c1 (stereo not shown) [Compound 89]
inhibition at 1 µM [1]: 10%

Cc1cncc(CCn2c3c(c4cc(C)ccc42)C2CCC(C3)N2C)c1 (stereo not shown) [Compound 90]
inhibition at 1 µM [1]: 6%

Cc1ccc2c(c1)c1c(n2CC(O)c2ccc(C)nc2)CC2CCC1N2C (stereo not shown) [Compound 91]
inhibition at 1 µM [1]: -5%

Cc1ccc(CCn2c3c(c4ccccc42)C2CCC(C3)N2C)cn1 (stereo not shown) [Compound 92]
inhibition at 1 µM [1]: 3%

Cc1ccc2c(c1)c1c(n2CC(=O)N2CCCCC2)CC2CCC1N2C (stereo not shown) [Compound 93]
inhibition at 1 µM [1]: -4%

CN1[C@@H]2CC[C@H]1c1c(n(CCc3ccc(F)cc3)c3ccc(F)cc13)C2 [Compound 94, (+)-(7S,10R)-2-Fluoro-5-(4-fluorophenethyl)-11-methyl-5,6,7,8,9,10-hexahydro-7,10-iminocyclohept[b]indole]
inhibition at 1 µM [1]: 21%

CN1[C@H]2CC[C@@H]1c1c(n(CCc3ccc(F)cc3)c3ccc(F)cc13)C2 [Compound 95, (−)-(7R,10S)-2-Fluoro-5-(4-fluorophenethyl)-11-methyl-5,6,7,8,9,10-hexahydro-7,10-iminocyclohept[b]indole]
inhibition at 1 µM [1]: 41%

CN1[C@@H]2CC[C@H]1c1c(n(CCc3ccc(C(F)(F)F)nc3)c3ccccc13)C2 [Compound 97]
inhibition at 1 µM [1]: 8%

CN1[C@@H]2CC[C@H]1c1c(n(CC(C)(O)c3ccc(F)cc3)c3ccccc13)C2 (stereo partly shown) [Compound 99]
inhibition at 1 µM [1]: -2%

CN1[C@@H]2CC[C@H]1c1c(n(CC(=O)N3CCCCC3)c3ccccc13)C2 [Compound 101]
inhibition at 1 µM [1]: 15%

Cc1ccc(CCn2c3c(c4ccccc42)[C@@H]2CC[C@H](C3)N2C)cn1 [Compound 102]
inhibition at 1 µM [1]: -5%

Cc1ccc2c(c1)c1c(n2CCC#N)CC2CCC1N2C (stereo not shown) [Compound 103]
inhibition at 1 µM [1]: 7%

CN1C2CCC1c1c(n(CCC#N)c3ccc(Cl)cc13)C2 (stereo not shown) [Compound 107]
inhibition at 1 µM [1]: -3%

CN1C2CCC1c1c(n(CC(=O)c3ccccc3)c3ccc(Cl)cc13)C2 (stereo not shown) [Compound 110]
inhibition at 1 µM [1]: 48%

CN1C2CCC1c1c(n(CC(=O)c3ccc(Cl)cc3)c3ccc(Cl)cc13)C2 (stereo not shown) [Compound 111]
inhibition at 1 µM [1]: 38%
inhibition at 1 µM [2]: 78%

Cc1ccc2c(c1)c1c(n2CCc2nc(-c3ccccc3)cs2)CC2CCC1N2C (stereo not shown) [Compound 114]
inhibition at 1 µM [1]: 29%

C/C(=C\n1c2c(c3cc(C)ccc31)C1CCC(C2)N1C)c1ccc(Cl)cc1 (stereo not shown) [Compound 116]
inhibition at 1 µM [1]: 10%
inhibition at 1 µM [2]: 92%

C/C(=C/n1c2c(c3ccccc31)[C@@H]1CC[C@H](C2)N1C)c1ccc(F)cc1 [Compound 121]
inhibition at 1 µM [1]: 65%

C/C(=C\n1c2c(c3cc(Cl)ccc31)C1CCC(C2)N1C)c1ccc(F)cc1 (stereo not shown) [Compound 123]
inhibition at 1 µM [1]: 98%
inhibition at 1 µM [2]: 97%

C/C(=C\n1c2c(c3cc(C)ccc31)C1CCC(C2)N1C)c1ccc(F)cc1 (stereo not shown) [Compound 124]
inhibition at 1 µM [1]: 85%
inhibition at 1 µM [2]: 91%

C/C(=C\n1c2c(c3cc(Cl)ccc31)C1CCC(C2)N1C)c1ccc(Cl)cc1 (stereo not shown) [Compound 125]
inhibition at 1 µM [1]: 33%
inhibition at 1 µM [2]: 95%

COc1ccc(/C(C)=C/n2c3c(c4cc(Cl)ccc42)C2CCC(C3)N2C)cc1F (stereo not shown) [Compound 136]
inhibition at 1 µM [1]: 31%
inhibition at 1 µM [2]: 79%

CN1C2CCC1c1c(n(C#Cc3ccc(F)cc3)c3ccc(Cl)cc13)C2 (stereo not shown) [Compound 138]
inhibition at 1 µM [1]: 45%
inhibition at 1 µM [2]: 91%

Cc1ccc(C#Cn2c3c(c4cc(Cl)ccc42)C2CCC(C3)N2C)cn1 (stereo not shown) [Compound 139]
inhibition at 1 µM [1]: 26%
inhibition at 1 µM [2]: 97%

Cc1ccc2c(c1)c1c(n2C#Cc2ccc(F)cc2)CC2CCC1N2C (stereo not shown) [Compound 141]
inhibition at 1 µM [1]: 21%
inhibition at 1 µM [2]: 48%

CN1C2CCC1c1c(n(C#Cc3ccc(Cl)cc3)c3ccc(Cl)cc13)C2 (stereo not shown) [Compound 142]
inhibition at 1 µM [1]: 36%
inhibition at 1 µM [2]: 57%

COc1ccc(C(C)(O)Cn2c3c(c4cc(Cl)ccc42)C2CCC(C3)N2C)cc1F (stereo not shown) [Compound 160]
inhibition at 1 µM [1]: 29%
inhibition at 1 µM [2]: 75%

COc1ccc(C(C)(O)Cn2c3c(c4cc(C)ccc42)C2CCC(C3)N2C)cc1F (stereo not shown) [Compound 161]
inhibition at 1 µM [1]: 25%
inhibition at 1 µM [2]: 69%

Cc1ccc2c(c1)c1c(n2C(=O)Cc2ccc(Cl)cc2)CC2CCC1N2C (stereo not shown) [Compound 162]
inhibition at 1 µM [1]: 23%
inhibition at 1 µM [2]: 43%

C/C(=C\n1c2c(c3cc(C)ccc31)C1CCC(C2)N1C)c1ccc(Cl)cc1Cl (stereo not shown) [Compound 163]
inhibition at 1 µM [1]: 36%
inhibition at 1 µM [2]: 87%
